Test results from ChEMBL document CHEMBL1153327, “M3 muscarinic acetylcholine receptor antagonists: SAR and optimization of bi-aryl amines” (Bioorg Med Chem Lett, 2009).
Active and inactive are the calls of the source. The rule behind the calls is not given here.

Target: T1, Muscarinic acetylcholine receptor M3 (Homo sapiens, UniProt P20309)
Experiment: Antagonist activity at human recombinant muscarinic M3 receptor expressed in CHO cells assessed as inhibition of acetylcholine-induced calcium mobilization by FLIPR assay
Format: functional, cell-based
Conditions: not given

T1 sequence (P20309 whole entry): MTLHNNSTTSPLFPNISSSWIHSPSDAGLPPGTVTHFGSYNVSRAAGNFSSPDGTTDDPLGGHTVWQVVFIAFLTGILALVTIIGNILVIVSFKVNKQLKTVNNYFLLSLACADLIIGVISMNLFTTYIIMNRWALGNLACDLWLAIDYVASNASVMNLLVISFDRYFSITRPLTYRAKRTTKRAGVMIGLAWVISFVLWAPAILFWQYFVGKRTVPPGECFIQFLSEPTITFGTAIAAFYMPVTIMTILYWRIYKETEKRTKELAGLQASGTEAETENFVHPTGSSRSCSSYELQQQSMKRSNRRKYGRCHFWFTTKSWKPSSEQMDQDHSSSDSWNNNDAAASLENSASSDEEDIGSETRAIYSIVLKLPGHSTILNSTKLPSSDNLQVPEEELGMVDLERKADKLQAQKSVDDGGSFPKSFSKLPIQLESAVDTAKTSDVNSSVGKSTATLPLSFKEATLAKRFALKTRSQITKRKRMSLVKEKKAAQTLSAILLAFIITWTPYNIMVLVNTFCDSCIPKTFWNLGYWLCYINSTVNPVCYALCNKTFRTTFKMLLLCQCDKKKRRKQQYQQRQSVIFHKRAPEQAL

SMILES | IC50
Cc1c(CNC(=O)c2ccc3c(c2)OCO3)cccc1-c1cccc(CN2CCNCC2)c1 | > 10000 nM
O=C1CN(Cc2cccc(-c3cccc(CNC(=O)c4ccc5c(c4)OCO5)c3)c2)CCN1 | > 10000 nM
C[N+]1(C)CCN(Cc2cccc(-c3cccc(CNC(=O)c4ccc5c(c4)OCO5)c3)c2)CC1 | 2510 nM
CC1CN(Cc2cccc(-c3cccc(CNC(=O)c4ccc5c(c4)OCO5)c3)c2)CCN1 (stereo unspecified) | 10 nM
Cc1ccc(-c2cccc(CN3CCNCC3)c2)cc1CNC(=O)c1ccc2c(c1)OCO2 | 3160 nM
C[C@H]1CN(Cc2ccc(-c3cccc(CNC(=O)c4ccc5c(c4)OCO5)c3)s2)CCN1 | 501 nM
O=C(NCc1cccc(-c2cccc(CN3CCNCC3)c2)c1)c1ccccc1C(F)(F)F | 3980 nM
O=C(NCc1cccc(-c2cccc(CN3CCNCC3)c2)c1)c1ccc(C(F)(F)F)cc1 | 631 nM
O=C(NCc1cccc(-c2ccc(F)c(CN3CCNCC3)c2)c1)c1ccc2c(c1)OCO2 | 200 nM
C[N+]1(Cc2cccc(-c3cccc(CNC(=O)c4ccc5c(c4)OCO5)c3)c2)CCNCC1 | > 10000 nM
O=C(NCc1ccc(F)c(-c2cccc(CN3CCNCC3)c2)c1)c1ccc2c(c1)OCO2 | 6.31 nM
O=S(=O)(NCc1cccc(-c2cccc(CN3CCNCC3)c2)c1)c1ccc2c(c1)OCO2 | 251 nM
O=C(NCc1cccc(-c2cccc(CN3CCNCC3)c2)c1)Nc1ccc2c(c1)OCO2 | 7940 nM
COc1ccc(CN2CCNCC2)cc1-c1cccc(CNC(=O)c2ccc3c(c2)OCO3)c1 | 1260 nM
COc1ccc(CNC(=O)c2ccc3c(c2)OCO3)cc1-c1cccc(CN2CCNCC2)c1 | 31.6 nM
CC(=O)Nc1cccc(C(=O)NCc2cccc(-c3cccc(CN4CCNCC4)c3)c2)c1 | 200 nM
O=C(NCc1cccc(-c2cccc(CN3CCNCC3)c2)c1)c1ccccc1Cl | 1000 nM
COc1ccc(C(=O)NCc2cccc(-c3cccc(CN4CCNCC4)c3)c2)cc1 | 501 nM
Cc1cccc(C(=O)NCc2cccc(-c3cccc(CN4CCNCC4)c3)c2)c1 | 251 nM
O=C(NCc1cc(-c2cccc(CN3CCNCC3)c2)ccc1F)c1ccc2c(c1)OCO2 | 251 nM
CN1CCN(Cc2cccc(C(=O)NCc3cccc(-c4cccc(CN5CCNCC5)c4)c3)c2)CC1 | 3.98 nM
CCN1CCN(Cc2cccc(-c3cccc(CNC(=O)c4ccc5c(c4)OCO5)c3)c2)CC1 | 1580 nM
Nc1cccc(C(=O)NCc2cccc(-c3cccc(CN4CCNCC4)c3)c2)c1 | 2000 nM
O=C(NCc1cccc(-c2cccc(CN3CCNCC3)c2)c1)c1cccc(Cl)c1 | 100 nM
O=C(NCc1cccc(-c2cccc(CN3CCNCC3)c2)c1)c1cccc(O)c1 | 2000 nM
O=C(NCc1cccc(-c2cccc(CN3CCOCC3)c2)c1)c1ccc2c(c1)OCO2 | > 10000 nM
O=C(NCc1cccc(-c2cccc(CN3CCNCC3)c2)c1)c1ccc(Cl)cc1 | 316 nM
O=C(NCc1cccc(-c2cccc(CN3CCCNCC3)c2)c1)c1ccc2c(c1)OCO2 | 316 nM

SMILES | IC50
O=C(NCc1cccc(-c2cccc(CN3CCNCC3)c2)c1)c1cccc(F)c1 | 794 nM
O=C(NCc1cccc(-c2cccc(CN3CCNCC3)c2)c1)c1cccc(C(F)(F)F)c1 | 50.1 nM
O=C(Nc1cccc(-c2cccc(CN3CCNCC3)c2)c1)c1ccc2c(c1)OCO2 | 6310 nM
CCc1cccc(C(=O)NCc2cccc(-c3cccc(CN4CCNCC4)c3)c2)c1 | 316 nM
O=C(NCc1cccc(-c2cccc(CN3CCNCC3)c2)c1F)c1ccc2c(c1)OCO2 | 2510 nM
CC(=O)c1cccc(C(=O)NCc2cccc(-c3cccc(CN4CCNCC4)c3)c2)c1 | 10 nM
COC(=O)c1cccc(C(=O)NCc2cccc(-c3cccc(CN4CCNCC4)c3)c2)c1 | 20 nM
C[C@H]1CN(Cc2cccc(-c3cccc(CNC(=O)c4ccc5c(c4)OCO5)c3)c2)CCN1 | 5.01 nM
C[C@@H]1CN(Cc2cccc(-c3cccc(CNC(=O)c4ccc5c(c4)OCO5)c3)c2)CCN1 | 50.1 nM
COc1ccccc1C(=O)NCc1cccc(-c2cccc(CN3CCNCC3)c2)c1 | 501 nM
CS(=O)(=O)c1cccc(C(=O)NCc2cccc(-c3cccc(CN4CCNCC4)c3)c2)c1 | 20 nM
CN(C)c1cccc(C(=O)NCc2cccc(-c3cccc(CN4CCNCC4)c3)c2)c1 | 200 nM
CN1CCCN(Cc2cccc(-c3cccc(CNC(=O)c4ccc5c(c4)OCO5)c3)c2)CC1 | 631 nM
N#Cc1ccccc1C(=O)NCc1cccc(-c2cccc(CN3CCNCC3)c2)c1 | 316 nM
O=C(NCc1cccc(-c2cccc(CN3CCCCC3)c2)c1)c1ccc2c(c1)OCO2 | 6310 nM
O=C(NCc1cccc(-c2cccc(C(=O)N3CCNCC3)c2)c1)c1ccc2c(c1)OCO2 | 5010 nM
C[C@H]1CN(Cc2cccc(-c3cccc(CNC(=O)c4ccc5c(c4)OCO5)c3)n2)CCN1 | 39.8 nM
O=C(NCc1cccc(-c2cccc(CN3CCNCC3)c2)c1)c1cccc(Oc2ccccc2)c1 | 1260 nM
COc1cccc(C(=O)NCc2cccc(-c3cccc(CN4CCNCC4)c3)c2)c1 | 79.4 nM
CCOc1cccc(C(=O)NCc2cccc(-c3cccc(CN4CCNCC4)c3)c2)c1 | 10 nM
CN1CCN(Cc2cccc(-c3cccc(CNC(=O)c4ccc5c(c4)OCO5)c3)c2)CC1 | 501 nM
O=C(NCc1cccc(-c2cccc(CN3C[C@@H]4C[C@H]3CN4)c2)c1)c1ccc2c(c1)OCO2 | 79.4 nM
COc1ccc(-c2cccc(CNC(=O)c3ccc4c(c3)OCO4)c2)cc1CN1CCNCC1 | 316 nM
CC(=O)N1CCN(Cc2cccc(-c3cccc(CNC(=O)c4ccc5c(c4)OCO5)c3)c2)CC1 | 3980 nM
N#Cc1ccc(C(=O)NCc2cccc(-c3cccc(CN4CCNCC4)c3)c2)cc1 | 79.4 nM
N#Cc1cccc(C(=O)NCc2cccc(-c3cccc(CN4CCNCC4)c3)c2)c1 | 50.1 nM
O=C(NCc1cccc(-c2cccc(CN3CCNCC3)c2)c1)c1cccc(OC(F)(F)F)c1 | 501 nM

Target: T1, Muscarinic acetylcholine receptor M3
Experiment: Antagonist activity at human recombinant muscarinic M3 receptor expressed in CHO cells assessed as inhibition of acetylcholine-induced calcium mobilization by FLIPR based single concentration kinetic assay
Format: functional, cell-based
Conditions: read-out: pA2 (converted)

SMILES | Kb
C[C@H]1CN(Cc2cccc(-c3cc(CNC(=O)c4cccc(C[N+]5(C)CCNCC5)c4)ccc3F)c2)CCN1 | 3.16 nM
C[C@H]1CN(Cc2cccc(-c3cc(CNC(=O)c4cccc(CN5CCCCC5)c4)ccc3F)c2)CCN1 | 0.631 nM
C[C@H]1CN(Cc2cccc(-c3cc(CNC(=O)c4cccc(CN5CC[N+](C)(Cc6ccccc6)CC5)c4)ccc3F)c2)CCN1 | 0.0794 nM
C[C@H]1CN(Cc2cccc(-c3cc(CNC(=O)c4cccc(CN(C)C)c4)ccc3F)c2)CCN1 | 3.16 nM
C[C@H]1CN(Cc2cccc(-c3cc(CNC(=O)c4cccc(CN5CC[N+]6(CCCCC6)CC5)c4)ccc3F)c2)CCN1 | 0.126 nM
C[C@H]1CN(Cc2cccc(-c3cc(CNC(=O)c4cccc(CN5CCCN(C)CC5)c4)ccc3F)c2)CCN1 | 0.251 nM
C[C@H]1CN(Cc2cccc(-c3cc(CNC(=O)c4cccc(CN(C)CCCN(C)C)c4)ccc3F)c2)CCN1 | 0.2 nM
C[C@H]1CN(Cc2cccc(-c3cc(CNC(=O)c4cccc(CN5CCOCC5)c4)ccc3F)c2)CCN1 | 0.126 nM
C[C@H]1CN(Cc2cccc(-c3cc(CNC(=O)c4cccc(CN5CCN(C)CC5)c4)ccc3F)c2)CCN1 | 0.0316 nM
CCC[N+]1(C)CCN(Cc2cccc(C(=O)NCc3ccc(F)c(-c4cccc(CN5CCN[C@@H](C)C5)c4)c3)c2)CC1 | 0.1 nM
C[C@H]1CN(Cc2cccc(-c3cc(CNC(=O)c4cccc(CN5CC[N+](C)(C)CC5)c4)ccc3F)c2)CCN1.[I-] | 0.158 nM
C[C@H]1CN(Cc2cccc(-c3cc(CNC(=O)c4cccc(CN5CCN(CCCO)CC5)c4)ccc3F)c2)CCN1 | 0.0631 nM
C[C@H]1CN(Cc2cccc(-c3cc(CNC(=O)c4cccc(CN5CCN(C=O)CC5)c4)ccc3F)c2)CCN1 | 0.0794 nM

System: not listed separately
Experiment: Permeability across artificial phospholipid membrane at pH 7.05 by HPLC
Format: ADME
Conditions: not told, read-out: permeability

SMILES | Papp
C[C@H]1CN(Cc2cccc(-c3cc(CNC(=O)c4cccc(CN5CC[N+](C)(C)CC5)c4)ccc3F)c2)CCN1.[I-] | < 0.3 ×10⁻⁶ cm/s

Target: T2, Muscarinic acetylcholine receptor M1 (Homo sapiens, UniProt P11229)
T2 sequence (P11229 whole entry): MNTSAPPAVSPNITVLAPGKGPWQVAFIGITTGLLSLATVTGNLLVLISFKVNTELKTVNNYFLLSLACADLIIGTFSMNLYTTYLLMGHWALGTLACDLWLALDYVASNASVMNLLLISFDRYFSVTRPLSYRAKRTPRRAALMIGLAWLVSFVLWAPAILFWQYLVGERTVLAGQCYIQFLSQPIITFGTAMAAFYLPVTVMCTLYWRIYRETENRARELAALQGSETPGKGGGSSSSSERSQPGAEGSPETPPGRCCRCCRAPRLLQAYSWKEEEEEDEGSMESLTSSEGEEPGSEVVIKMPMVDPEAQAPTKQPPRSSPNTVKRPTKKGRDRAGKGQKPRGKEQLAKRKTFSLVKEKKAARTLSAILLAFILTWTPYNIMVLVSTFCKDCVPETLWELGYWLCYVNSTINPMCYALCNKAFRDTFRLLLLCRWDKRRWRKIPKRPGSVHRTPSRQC
Experiment: Antagonist activity at human recombinant muscarinic M1 receptor expressed in CHO cells assessed as inhibition of acetylcholine-induced calcium mobilization by FLIPR assay
Format: functional, cell-based
Conditions: read-out: pA2 (converted)

SMILES | Kb
C[C@H]1CN(Cc2cccc(-c3cc(CNC(=O)c4cccc(CC5CCNCC5)c4)ccc3F)c2)CCN1 | 0.2 nM

System: Mus musculus
Experiment: Inhibition of methacholine-induced bronchoconstriction in intranasally dosed BALB/c mouse assessed as enhanced pause pretreated before methacholine challenge
Format: functional, organism-based
Conditions: not given

SMILES | inhibition
C[C@H]1CN(Cc2cccc(-c3cc(CNC(=O)c4cccc(CC5CCNCC5)c4)ccc3F)c2)CCN1 | Active
